The values that follow come from the METLIN SMRT retention time set (Domingo-Almenara et al. 2019).

A short description of the data set: gradient 5% acetonitrile 3 min, to 50% in 2 min, to 85% in 15 min, held 3 min, 100 µL/min. The note with it: column: Zorbax Extend-C18 2.1 x 50 mm; eluents: water / acetonitrile, 0.1% formic acid. The method in brief: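 Retention times come from adduct peaks that were picked computationally and then checked by hand. The standards, pure and pooled in mixtures of ~100 molecules, were run on a Zorbax Extend-C18 column (2.1 × 50 mm, 1.8 μm) at 100 μL/min with water and acetonitrile, each with 0.1% formic acid. Detection was by quadrupole time-of-flight mass spectrometry in positive and negative ionization mode, with a dead volume of 40 μL and a dwell volume of 900 μL.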
For the compound `COCC1CN(Cc2cn[nH]c2-c2ccccc2)CCC1(F)F` (stereo unspecified), the RP-LC retention time was found to be 609 s.

In turn, `COc1ccc(OC)c(N2CC(c3nc(-c4ccc5c(c4)OCO5)no3)CC2=O)c1` (stereo unspecified) displayed an RP-LC retention time of 886 s.

The compound `CCn1c(C(=O)Nc2ccc(C)cc2C)cc2sc(Cl)cc21` had an RP-LC retention time of 1240 s.

Turning to `O=C(Cn1cnc2c(sc3nc(-c4ccccc4)ccc32)c1=O)Nc1ccc(F)c(Cl)c1`, the RP-LC retention time worked out at 1110 s.

As for `Cc1cnc(NC(=O)c2ccc(N3CCCC3)nn2)s1`, the RP-LC retention time worked out at 636 s.

In turn, `O=C(NCCc1nc2cccnc2n1-c1ccccc1)c1ccsc1` returned an RP-LC retention time of 674 s.

In turn, `Cc1noc(-c2cc(=O)n(CC(=O)Nc3ccc(Cl)cc3)c3ccccc23)n1` registered an RP-LC retention time of 915 s.

The compound `CCCn1c2ccccc2c2cnn(CC(=O)NCCN(C)Cc3ccccc3)c(=O)c21` came in with an RP-LC retention time of 699 s.

On to `O=C(CC1CCCN(c2cnn(CC3CC3)c(=O)c2)C1)NC1CC1` (stereo unspecified), for which the RP-LC retention time was 651 s.

The compound `CCCCn1cc(S(=O)(=O)Nc2cccc(C)c2)c2cccnc21` registered an RP-LC retention time of 976 s.

Consider `O=C(Cn1nc2n(c1=O)CCCCC2)Nc1ccc(C(F)(F)F)cc1`, for which the RP-LC retention time worked out at 764 s.

Consider `COC(=O)c1nc(NC(=O)Cn2nc3c(cc2=O)CCCC3)sc1Cc1ccccc1`, for which the RP-LC retention time stood at 868 s.

Compound `COc1ccc(Cl)cc1S(=O)(=O)N1CCCC(Cn2cnc3cccnc32)C1` (stereo unspecified) had an RP-LC retention time of 708 s.

`CCN1C(=O)COc2ccc(-c3noc(Cc4ccc(Cl)cc4)n3)cc21` displayed an RP-LC retention time of 1100 s.

`COc1ccc(CNC(=O)C2CCCN(c3nccnc3Sc3ccccc3)C2)c(OC)c1` (stereo unspecified) displayed an RP-LC retention time of 1020 s.

As to `O=C(Nc1cccn2ncnc12)c1cccs1`, the RP-LC retention time turned out to be 690 s.

`CCc1ccc(NC(=O)C2CCN(S(C)(=O)=O)c3cc(C)ccc3O2)cc1` (stereo unspecified) registered an RP-LC retention time of 998 s.

In the case of `Cc1c(C(=O)O)nnn1-c1ccc2c(c1)OCCO2`, the RP-LC retention time amounted to 638 s.

`Cc1ccc(-c2nc(-c3ccc(-c4noc(CNC(=O)c5ccccc5)n4)cc3)cs2)s1` displayed an RP-LC retention time of 1250 s.

For the compound `O=S(=O)(c1ccc(-c2nnc(C3CCCC3)o2)o1)N1CCOCC1`, the RP-LC retention time was 834 s.

In the case of `Cc1ccc(Cn2c(=O)c(N3CCC(NC(=O)NCC4CCCO4)CC3)nc3cccnc32)cc1` (stereo unspecified), the RP-LC retention time was found to be 929 s.

`O=C(NCc1cccnc1-c1ccc(F)cc1)c1cc(F)cc(F)c1` displayed an RP-LC retention time of 710 s.

`CCn1cc(-c2ccc(OC)cc2)cc1C(=O)N1CCCN(C)CC1` registered an RP-LC retention time of 627 s.

`COc1ccc(C2(C(=O)N3CCC(n4c(C)cnc4-c4ccccc4)C3)CC2)cc1` (stereo unspecified) displayed an RP-LC retention time of 661 s.

In turn, `CCC(=O)Nc1cnc(-c2ccc(F)cc2)nc1` showed an RP-LC retention time of 794 s.

`O=C(NCCc1csc(C2CCCN(C(=O)C3(c4ccccc4)CC3)C2)n1)C1CC1` (stereo unspecified) registered an RP-LC retention time of 762 s.

Take `CCN(CC)C(=O)C1CCN(c2nc3ccc(-c4cccs4)nc3s2)CC1`: the RP-LC retention time came out at 992 s.

Compound `CCn1cc(-c2ccc(F)cc2)cc1C(=O)NC1CC1` came in with an RP-LC retention time of 917 s.

Compound `Cc1c(S(=O)(=O)NCc2ccccc2)c(C)n(C)c1-c1nnc(C2CCC2)o1` showed an RP-LC retention time of 972 s.

`CCn1cnc(S(=O)(=O)N2CCCC(C(=O)Nc3ccc(F)cc3)C2)c1` (stereo unspecified) registered an RP-LC retention time of 726 s.

Turning to `O=C(c1cccc(Cl)c1)N1CCN(C(=O)c2nnn3c2COC(c2ccccc2)C3)CC1` (stereo unspecified), the RP-LC retention time was 900 s.

Regarding `Cc1ncn(CC(=O)Nc2cc(F)ccc2F)c(=O)c1C`, the RP-LC retention time is 658 s.

For `CC(C)n1nc(CNC(=O)c2ccsc2)c2ccccc21`, the RP-LC retention time is 800 s.

`O=C(NCCc1ccccc1)N1CCC(c2noc(-c3cnccn3)n2)C1` (stereo unspecified) showed an RP-LC retention time of 715 s.

Consider `COc1ccc(S(=O)(=O)N2C[C@H]3CN(C(=O)Nc4cccc(OC)c4)C[C@@H](C2)O3)cc1`, for which the RP-LC retention time is 881 s.

Compound `CCC(C(=O)NCCc1c[nH]c2ccccc12)n1nc(C)c2nn(-c3ccccc3)c(C)c2c1=O` (stereo unspecified) yielded an RP-LC retention time of 932 s.

Turning to `CCn1c(=O)n(CC(=O)NC(C)C)c(=O)c2cnc(-c3ccccc3)nc21`, the RP-LC retention time worked out at 863 s.

`CC(C)n1cnc(S(=O)(=O)N2CCCC(C(=O)NCCCc3ccccc3)C2)c1` (stereo unspecified) gave an RP-LC retention time of 806 s.

`Cc1ccc(Cn2nc3c(S(=O)(=O)N4CCCCC4)cccn3c2=O)cc1` showed an RP-LC retention time of 925 s.

For the compound `Cn1nccc1C(=O)N1CCCC1c1ccccc1Cl` (stereo unspecified), the RP-LC retention time turned out to be 823 s.

Compound `CC(=O)Nc1ccc(S(=O)(=O)N2CCCC2c2nc(-c3ccc(F)cc3)no2)cc1Cl` (stereo unspecified) displayed an RP-LC retention time of 990 s.

Take `Cc1cccc(C2CCCN2C(=O)c2nc3nc(C)cc(C(F)F)n3n2)c1` (stereo unspecified): the RP-LC retention time worked out at 841 s.

For the compound `CCN(C(=O)c1cccc(OC)c1)c1nc(-c2ccccc2)cs1`, the RP-LC retention time stood at 1270 s.

As to `COc1ccccc1NC(=O)c1oc2ccccc2c1NC(=O)c1c(F)cccc1Cl`, the RP-LC retention time is 1180 s.

`CCCN1CCN(C(=O)c2sc(-c3cn(C(C)C)c4ncccc34)nc2C)CC1`: the RP-LC retention time amounted to 619 s.

`CCn1c(CCNC(=O)c2cc(C)cc(C)c2)nc2cccnc21` registered an RP-LC retention time of 666 s.

On to `COc1cc2c(cc1OC)C(C(=O)NC1CCCCCC1)C(c1cccnc1)N(C)C2=O` (stereo unspecified), for which the RP-LC retention time came out at 645 s.

Consider `COc1ccc(NC(=O)Cn2cc(C(=O)N3CCCC3)c(=O)c3ccc(C)nc32)cc1`, for which the RP-LC retention time is 667 s.

As for `CCCNC(=O)CCc1c(C)n(C)c2nc(-c3ccccc3)nn2c1=O`, the RP-LC retention time is 665 s.

Compound `Cc1nc(CCNC(=O)[C@H]2CCCN2C(=O)c2ccccc2Cl)cs1` showed an RP-LC retention time of 659 s.

`CCCNC(=O)C1CCCN(c2ccc(SCC(=O)Nc3ccccc3F)nn2)C1` (stereo unspecified): the RP-LC retention time turned out to be 620 s.

Regarding `Cc1cccc(NC(=O)C2CC(=O)N(c3ccc4oc(C)nc4c3)C2)c1` (stereo unspecified), the RP-LC retention time worked out at 708 s.

With `COc1cccc(CNC(=O)N2c3ccccc3CC2c2nc(C3CC3)no2)c1` (stereo unspecified), the RP-LC retention time is 775 s.

As for `COc1ccc(F)cc1S(=O)(=O)N1CCC(n2cnnc2C)CC1`, the RP-LC retention time is 650 s.

Turning to `CC(=O)OC1CCN(C(=O)c2cccc(C#N)c2)CC1`, the RP-LC retention time came to 706 s.

`Cc1ccc(-c2csc(Nc3ccccc3C)n2)cc1` returned an RP-LC retention time of 1240 s.

For `CN(CCc1noc(COc2ccc(Cl)cc2)n1)C(=O)NCc1ccccc1`, the RP-LC retention time was determined as 944 s.

Regarding `Cc1ccc(NC(=O)Cn2nc3c(N4CCN(c5ccccc5)CC4)nccn3c2=O)cc1C`, the RP-LC retention time was found to be 975 s.

Consider `CCn1c(CCNC(=O)c2ccc(C)c(C)c2)nc2cccnc21`, for which the RP-LC retention time worked out at 661 s.

On to `COCCCn1c(=O)c2ccccc2n(Cc2nc(-c3ccc(OC)c(OC)c3)no2)c1=O`, for which the RP-LC retention time is 876 s.

As for `CC(C)OC(=O)COc1cc(O)c2c(=O)cc(-c3ccccc3)oc2c1`, the RP-LC retention time was found to be 1170 s.

`CS(=O)(=O)N1CCCc2cc(C(=O)N3CCC(C(N)=O)CC3)ccc21`: the RP-LC retention time is 604 s.

Take `COc1ccc(S(=O)(=O)Cc2nc(-c3ccccc3C)no2)cc1OC`: the RP-LC retention time worked out at 882 s.

Consider `C=C(C)C(=O)Nc1ccc(NC(C)C)cc1`, for which the RP-LC retention time is 629 s.

In the case of `COc1cccc(CC(=O)N2CCC(C(=O)NCc3csc(-c4cccs4)n3)CC2)c1`, the RP-LC retention time came to 774 s.

As to `CCc1ccc(OCC(=O)Nc2cc3c(cc2N2CCCC2)n(C)c(=O)c(=O)n3C)cc1`, the RP-LC retention time is 836 s.

In the case of `O=C(c1cc[nH]c(=O)c1)N1C[C@@H](COCC2CC2)[C@H](c2ccncc2)C1`, the RP-LC retention time was 555 s.

Turning to `Cc1ccnc(N2CCCC(C(=O)NC3CCCC3)C2)n1` (stereo unspecified), the RP-LC retention time worked out at 674 s.

`COCCc1noc(C2CN(S(=O)(=O)Cc3ccccc3)C2)n1` displayed an RP-LC retention time of 780 s.

In turn, `CCOc1ccc(NC(=O)NC(C)C(=O)N2CCc3ccccc32)cc1` (stereo unspecified) showed an RP-LC retention time of 855 s.

In turn, `CCC1CN(C(=O)Nc2cccc(C(=O)OC)c2)c2ccccc2O1` (stereo unspecified) had an RP-LC retention time of 1020 s.

`CCn1nccc1C(=O)N1CCCC1c1ccccc1Cl` (stereo unspecified) displayed an RP-LC retention time of 849 s.

In the case of `Cc1ncsc1CN1CCC(c2nc(-c3ccc(F)cc3)n[nH]2)CC1`, the RP-LC retention time came out at 918 s.

With `CC1Oc2ccccc2OC1C(=O)Nc1cccc(C(F)(F)F)c1` (stereo unspecified), the RP-LC retention time amounted to 1050 s.

`Cc1ccc(-c2csc3c(=O)n(Cc4cc(=O)n5ccccc5n4)cnc23)cc1` showed an RP-LC retention time of 847 s.

The compound `CCn1c(C(=O)N2CCN(c3ccccn3)CC2)cc2c(-c3cccs3)nn(-c3ccccc3)c21` returned an RP-LC retention time of 776 s.

With `CCn1ccc2oc(C)c(C(=O)NCc3cccc(Br)c3)c2c1=O`, the RP-LC retention time was found to be 1060 s.

`Cc1cccc([N+](=O)[O-])c1NC(=O)C1CCCN(c2ccc(-n3cccn3)nn2)C1` (stereo unspecified) had an RP-LC retention time of 711 s.

The compound `Cc1ccc(NC(=O)N2CC(c3nc(C(C)C)nn3C)C2)cc1C` came in with an RP-LC retention time of 710 s.

Turning to `CC(C)c1ccc(C2C(C(=O)c3ccccc3)C(=O)C(=O)N2CCCN2CCOCC2)cc1` (stereo unspecified), the RP-LC retention time is 725 s.

For `CCCn1cc(S(=O)(=O)N2CCN(c3ccccc3Cl)CC2)c2cccnc21`, the RP-LC retention time was 1150 s.
